Experimental data as given in patent US20230172206A1 (BASF SE, priority 2020, published 2023).
Values joined by “and” are separate entries in the source; they are usually repeats but may differ in a detail not shown here. Equal entries are not always repeated. Where two headings read alike, the source gives them in different places.

Legend:
Cercospora sojina = assay type: cell-based; conditions: 4 ppm, 7 days after inoculation, relative to compound-free control (100%)
Alternaria solani (wt) = assay type: cell-based
[1] = test system: Alternaria solani (F129L); assay: Micro titer plate test against early blight (ALTESO F129L); assay type: cell-based; conditions: 0.016 ppm, 7 days after inoculation, relative to compound-free control (100%)
Septoria tritici = assay: Micro titer plate test against leaf blotch on wheat (SEPTTR); assay type: cell-based
Microdochium nivale = assay type: cell-based; conditions: 0.016 ppm, 7 days after inoculation, relative to compound-free control (100%)
[2] = test system: Phakopsora pachyrhizi (F129L); assay: Protective control of soybean rust on soybeans (PHAKPA P6); assay type: in vivo
[3] = test system: Phakopsora pachyrhizi (wt); assay: Protective control of soybean rust on detached soybean leaves (PHAKPA P1 DL), Qo inhibitor-sensitive wt isolate; assay type: in vivo
[4] = test system: Phakopsora pachyrhizi (F129L); assay: Protective control of soybean rust on detached soybean leaves (PHAKPA P1 DL), F129L isolate; assay type: in vivo
[5] = test system: Phakopsora pachyrhizi (F129L); assay: Protective control of soybean rust on soybeans (PHAKPA P2); assay type: in vivo; conditions: for PHAKPA (F129L) Disease level (%) P2 at 4 ppm: protective, inoculation 2 days after spraying, % diseased leaf area
Pyrenophora teres (wt) = assay: Micro titer plate test against net blotch on barley (PYRNTE wt); assay type: cell-based; conditions: 0.25 ppm, 7 days after inoculation, relative to compound-free control (100%)
Leptosphaeria nodorum = assay: Micro titer plate test against wheat leaf spots (LEPTNO); assay type: cell-based; conditions: 0.063 ppm, 7 days after inoculation, relative to compound-free control (100%)
[6] = test system: Colletotrichum orbiculare; assay: Micro titer plate test against anthracnose (COLLLA); assay type: cell-based; conditions: 0.063 ppm, 7 days after inoculation, relative to compound-free control (100%)
[7] = 0.016 ppm, 7 days after inoculation, relative to compound-free control (100%)
[8] = 0.25 ppm, 7 days after inoculation, relative to compound-free control (100%)

Compound: CO/N=C(/C(=O)OC)c1cccc(C)c1CO/N=C(\OC)c1cccc(C)c1
- Fungal growth (%) CERCSO (Cercospora sojina): 67%
- Fungal growth (%) ALTESO wt (Alternaria solani (wt); [7]): 93%
- Fungal growth (%) ALTESO F129L [1]: 81%

Compound: CNC(=O)/C(=N/OC)c1cccc(C)c1CO/N=C(\OC)c1cccc(C)c1
- Fungal growth (%) SEPTTR (Septoria tritici; [8]): 100%
- Fungal growth (%) ALTESO wt (Alternaria solani (wt); [7]): 93%
- Fungal growth (%) ALTESO F129L [1]: 95%

Compound: CNC(=O)/C(=N/OC)c1cccc(C)c1CO/N=C(\C)c1ccc(Cl)cc1 [compound 158]
- Fungal growth (%) MONGNI (Microdochium nivale): 71%
- % PHAKPA (F129L) Disease level P6 at 4 ppm ([2]; protective P6, 4 ppm, soybean rust F129L isolate): 2%
- % PHAKPA (F129L) Disease level P6 at 16 ppm ([2]; protective P6, 16 ppm, soybean rust F129L isolate): 0%
- PHAKPA (F129L) Disease level (%) P6 at 4 ppm ([2]; protective, inoculation six days after spraying, 4 ppm, % diseased leaf area): 4%
- PHAKPA P1 DL Disease level (%) Qo I-sensitive wt isolate (0 % F129L) ([3]; test concentration 0.3 ppm): 38%
- PHAKPA P1 DL Disease level (%) Qo I-sensitive wt isolate (0 % F129L) ([3]; test concentration 1 ppm): 7%
- PHAKPA P1 DL Disease level (%) Qo I-sensitive wt isolate (0 % F129L) ([3]; test concentration 3 ppm): 2%
- PHAKPA P1 DL Disease level (%) Qo I-sensitive wt isolate (0 % F129L) ([3]; test concentration 10 ppm): 1%
- PHAKPA P1 DL Disease level (%) Qo I-sensitive wt isolate (0 % F129L) ([3]; test concentration 30 ppm): 4%
- PHAKPA P1 DL Disease level (%) Qo I-sensitive wt isolate (0 % F129L) ([3]; test concentration 100 ppm): 5%
- PHAKPA P1 DL Disease level (%) Qo I-sensitive wt isolate (0 % F129L) ([3]; test concentration 300 ppm): 4%
- PHAKPA P1 DL Disease level (%) Qo I-resistant F129L isolate (100 % F129L) ([4]; test concentration 0.3 ppm): 87%
- PHAKPA P1 DL Disease level (%) Qo I-resistant F129L isolate (100 % F129L) ([4]; test concentration 1 ppm): 57%
- PHAKPA P1 DL Disease level (%) Qo I-resistant F129L isolate (100 % F129L) ([4]; test concentration 3 ppm): 8%
- PHAKPA P1 DL Disease level (%) Qo I-resistant F129L isolate (100 % F129L) ([4]; test concentration 10 ppm): 2%
- PHAKPA P1 DL Disease level (%) Qo I-resistant F129L isolate (100 % F129L) ([4]; test concentration 30 ppm): 4%
- PHAKPA P1 DL Disease level (%) Qo I-resistant F129L isolate (100 % F129L) ([4]; test concentration 100 ppm): 4%
- PHAKPA P1 DL Disease level (%) Qo I-resistant F129L isolate (100 % F129L) ([4]; test concentration 300 ppm): 5%
- Fungal growth (%) ALTESO wt (Alternaria solani (wt); [7]): 66%
- Fungal growth (%) ALTESO F129L [1]: 79%
- % PHAKPA (F129L) Disease level P2 at 4 ppm ([5]; protective P2, 4 ppm, soybean rust F129L isolate): 0%
- % PHAKPA (F129L) Disease level P2 at 16 ppm ([5]; protective P2, 16 ppm, soybean rust F129L isolate): 0%
- PHAKPA (F129L) Disease level (%) P2 at 4 ppm [5]: 1%

Compound: CO/N=C(/C(=O)OC)c1cccc(C)c1CO/N=C(/c1cccc(Cl)c1)C1CC1 [drawing 963]
- Fungal growth (%) SEPTTR (Septoria tritici; [8]): 39%
- Fungal growth (%) ALTESO wt (Alternaria solani (wt); [7]): 81%
- Fungal growth (%) ALTESO F129L [1]: 89%

Compound: CNC(=O)/C(=N/OC)c1cccc(C)c1CO/N=C(\SC)c1cccc(C(F)(F)F)c1
- Fungal growth (%) CERCSO (Cercospora sojina): 66%
- Fungal growth (%) ALTESO F129L [1]: 85%

Compound: CNC(=O)/C(=N/OC)c1cccc(C)c1CO/N=C(/c1cccc(C)c1)C1CC1
- Fungal growth (%) SEPTTR (Septoria tritici; [8]): 87%
- Fungal growth (%) ALTESO wt (Alternaria solani (wt); [7]): 89%
- Fungal growth (%) ALTESO F129L [1]: 93%

Compound: CO/N=C(/C(=O)OC)c1cccc(C)c1CO/N=C(/c1cccc(C)c1)C1CC1 [drawing 957]
- Fungal growth (%) CERCSO (Cercospora sojina): 87%
- Fungal growth (%) ALTESO wt (Alternaria solani (wt); [7]): 100%
- Fungal growth (%) ALTESO F129L [1]: 87%

Compound: CNC(=O)/C(=N/OC)c1cccc(C)c1CO/N=C(\OC)c1cccc(C(F)(F)F)c1 [drawing 948]
- Fungal growth (%) SEPTTR (Septoria tritici; [8]): 77%
- Fungal growth (%) ALTESO wt (Alternaria solani (wt); [7]): 100%
- Fungal growth (%) ALTESO F129L [1]: 87%

Compound: CO/N=C(/C(=O)OC)c1cccc(C)c1CO/N=C(\SC)c1cccc(C)c1 [drawing 952]
- Fungal growth (%) SEPTTR (Septoria tritici; [8]): 61%

Compound: CNC(=O)/C(=N/OC)c1cccc(C)c1CO/N=C(\SC)c1cccc(Cl)c1 [drawing 968]
- Fungal growth (%) SEPTTR (Septoria tritici; [8]): 59%
- Fungal growth (%) ALTESO wt (Alternaria solani (wt); [8]): 43%
- Fungal growth (%) ALTESO F129L [1]: 90%

Compound: CO/N=C(/C(=O)OC)c1cccc(C)c1CO/N=C(/c1cccc(C)c1)C1CC1 [drawing 953]
- Fungal growth (%) SEPTTR (Septoria tritici; [8]): 89%

Compound: CO/N=C(/C(=O)OC)c1cccc(C)c1CO/N=C(\SC)c1cccc(Cl)c1 [drawing 962]
- Fungal growth (%) SEPTTR (Septoria tritici; [8]): 39%
- Fungal growth (%) ALTESO wt (Alternaria solani (wt); [7]): 94%
- Fungal growth (%) ALTESO F129L [1]: 100%

Compound: CO/N=C(/C(=O)OC)c1cccc(C)c1CO/N=C(\SC)c1cccc(C)c1 [drawing 955]
- Fungal growth (%) CERCSO (Cercospora sojina): 71%
- Fungal growth (%) ALTESO wt (Alternaria solani (wt); [7]): 67%
- Fungal growth (%) ALTESO F129L [1]: 66%

Compound: CO/N=C(/C(=O)OC)c1cccc(C)c1CO/N=C(\C)c1cccc(Cl)c1 [compound 153]
- Fungal growth (%) PYRNTE wt (Pyrenophora teres (wt)): 31%
- Fungal growth (%) MONGNI (Microdochium nivale): 75%
- PHAKPA (F129L) Disease level (%) P6 at 16 ppm ([2]; protective, inoculation six days after spraying, % diseased leaf area, listed as Ex. 153): 1% and 5%
- Fungal growth (%) SEPTTR (Septoria tritici; [8]): 0%
- Fungal growth (%) LEPTNO (Leptosphaeria nodorum): 55%
- Fungal growth (%) CERCSO (Cercospora sojina): 26%
- Fungal growth (%) ALTESO wt (Alternaria solani (wt); [7]): 71%
- Fungal growth (%) ALTESO F129L [1]: 68%
- Fungal growth (%) COLLLA [6]: 55%

Compound: CO/N=C(/C(=O)OC)c1cccc(C)c1CO/N=C(\C)c1cccc(OC(F)(F)F)c1 [drawing 936]
- Fungal growth (%) CERCSO (Cercospora sojina): 33%
- Fungal growth (%) ALTESO wt (Alternaria solani (wt); [7]): 94%

Compound: CNC(=O)/C(=N/OC)c1cccc(C)c1CO/N=C(\SC)c1cccc(Cl)c1 [drawing 970]
- Fungal growth (%) CERCSO (Cercospora sojina): 78%

Compound: CO/N=C(/C(=O)OC)c1cccc(C)c1CO/N=C(\C)c1cccc(C)c1 [compound 76]
- PHAKPA (F129L) Disease level (%) P6 at 16 ppm ([2]; protective, inoculation six days after spraying, % diseased leaf area, listed as Ex. 76): 0% and 4%
- Fungal growth (%) SEPTTR (Septoria tritici; [8]): 0%
- Fungal growth (%) CERCSO (Cercospora sojina): 28%
- Fungal growth (%) ALTESO wt (Alternaria solani (wt); [7]): 55%
- Fungal growth (%) ALTESO F129L [1]: 37%

Compound: CNC(=O)/C(=N/OC)c1cccc(C)c1CO/N=C(\C)c1cccc(C(F)(F)F)c1 [compound 8]
- Fungal growth (%) SEPTTR (Septoria tritici): 57%
- Fungal growth (%) ALTESO wt (Alternaria solani (wt)): 56%
- Fungal growth (%) ALTESO F129L ([1]; listed as Ex. 8): 55% and 52%

Compound: CO/N=C(/C(=O)OC)c1cccc(C)c1CO/N=C(\C)c1cccc(C(F)(F)F)c1 [compound 9]
- PHAKPA (F129L) Disease level (%) P6 at 16 ppm ([2]; protective, inoculation six days after spraying, % diseased leaf area, listed as Ex. 9): 4% and 1%
- Fungal growth (%) CERCSO (Cercospora sojina): 11%
- Fungal growth (%) ALTESO wt (Alternaria solani (wt); [7]): 73%

Compound: CNC(=O)/C(=N/OC)c1cccc(C)c1CO/N=C(\C)c1cccc(Cl)c1 [compound 157]
- Fungal growth (%) PYRNTE wt (Pyrenophora teres (wt)): 54%
- Fungal growth (%) MONGNI (Microdochium nivale): 56%
- Fungal growth (%) SEPTTR (Septoria tritici; [8]): 20%
- Fungal growth (%) CERCSO (Cercospora sojina): 36%
- Fungal growth (%) ALTESO wt (Alternaria solani (wt); [8]): 27%
- Fungal growth (%) ALTESO F129L [1]: 57%
- PHAKPA (F129L) Disease level (%) P2 at 4 ppm ([5]; listed as Ex. 157): 0% and 1%
- Fungal growth (%) COLLLA [6]: 63%

Compound: CO/N=C(/C(=O)OC)c1cccc(C)c1CO/N=C(\SC)c1cccc(Cl)c1 [drawing 965]
- Fungal growth (%) CERCSO (Cercospora sojina): 62%

Compound: Cc1cccc(-n2nnn(C)c2=O)c1COc1ccn(-c2ccc(Cl)cc2)n1 [drawing 930]
- Fungal growth (%) MONGNI (Microdochium nivale): 97%
- Fungal growth (%) ALTESO wt (Alternaria solani (wt); [7]): 98%
- Fungal growth (%) ALTESO F129L [1]: 100%

Compound: CNC(=O)/C(=N/OC)c1cccc(C)c1CO/N=C(\OC)c1cccc(C(F)(F)F)c1 [drawing 950]
- Fungal growth (%) CERCSO (Cercospora sojina): 60%
